Test results taken from patent US20250179052A1, “PYRIMIDINYL-OXY-QUINOLINE BASED HERBICIDAL COMPOUNDS” (SYNGENTA CROP PROTECTION AG, priority 2022, published 2025).

Tests used:
Settings in all cases: 250 g/ha, evaluated after 13 days, five-point scale
Setaria faberi (SETFA) [1] = assay: Post-emergence herbicidal glasshouse test; format: in vivo
[2] = test system: Amaranthus retoflexus (AMARE); assay: Pre-emergence herbicidal glasshouse test; format: in vivo
Setaria faberi (SETFA) [3] = assay: Pre-emergence herbicidal glasshouse test; format: in vivo
[4] = test system: Echinochloa crus-galli (ECHCG); assay: Pre-emergence herbicidal glasshouse test; format: in vivo
AMAPA [5] = assay: Post-emergence herbicidal glasshouse test; format: in vivo, Amaranthus tuberculatus
AMAPA [6] = assay: Pre-emergence herbicidal glasshouse test; format: in vivo, Amaranthus tuberculatus
[7] = test system: Ipomoea hederacea (IPOHE); assay: Post-emergence herbicidal glasshouse test; format: in vivo
[8] = test system: Amaranthus retoflexus (AMARE); assay: Post-emergence herbicidal glasshouse test; format: in vivo
[9] = test system: Echinochloa crus-galli (ECHCG); assay: Post-emergence herbicidal glasshouse test; format: in vivo
[10] = test system: Ipomoea hederacea (IPOHE); assay: Pre-emergence herbicidal glasshouse test; format: in vivo

SMILES | percentage damage caused to the plant, SETFA (Setaria faberi (SETFA) [1]) | percentage damage caused to the plant, AMARE [2] | percentage damage caused to the plant, SETFA (Setaria faberi (SETFA) [3]) | percentage damage caused to the plant, ECHCG [4] | percentage damage caused to the plant, AMAPA (AMAPA [5]) | percentage damage caused to the plant, AMAPA (AMAPA [6]) | percentage damage caused to the plant, IPOHE [7] | percentage damage caused to the plant, AMARE [8] | percentage damage caused to the plant, ECHCG [9] | percentage damage caused to the plant, IPOHE [10]
Cc1nc(C(F)(F)Cl)nc2cccc(Oc3ncc(Cl)cn3)c12 [Compound 1.069] | 2 (2=21-40%) | 5 (5=81-100%) | 5 (5=81-100%) | 2 (2=21-40%) | 3 (3=41-60%) | 5 (5=81-100%) | 2 (2=21-40%) | 3 (3=41-60%) | 2 (2=21-40%) | 1 (1=0-20%)
Fc1cnc(Oc2cccc3nc(C(F)(F)F)ncc23)nc1 [Compound 1.070] | 4 (4=61-80%) | 5 (5=81-100%) | 5 (5=81-100%) | 5 (5=81-100%) | 4 (4=61-80%) | 5 (5=81-100%) | 4 (4=61-80%) | 4 (4=61-80%) | 4 (4=61-80%) | 5 (5=81-100%)
FC(F)(F)c1ncc2c(Oc3ncc(Cl)cn3)ccc(Br)c2n1 [Compound 1.071] | 1 (1=0-20%) | 3 (3=41-60%) | 4 (4=61-80%) | 3 (3=41-60%) | 2 (2=21-40%) | 5 (5=81-100%) | 2 (2=21-40%) | 3 (3=41-60%) | 1 (1=0-20%) | 1 (1=0-20%)
Cc1nc(C(F)(F)F)nc2c(Br)ccc(Oc3ncc(Cl)cn3)c12 [Compound 1.072] | 1 (1=0-20%) | 1 (1=0-20%) | 1 (1=0-20%) | 1 (1=0-20%) | 1 (1=0-20%) | 2 (2=21-40%) | 1 (1=0-20%) | 1 (1=0-20%) | 1 (1=0-20%) | 1 (1=0-20%)
Cc1ccc(Oc2ncc(Cl)cn2)c2c(C)nc(C(F)(F)F)nc12 [Compound 1.073] | 1 (1=0-20%) | 1 (1=0-20%) | 1 (1=0-20%) | 1 (1=0-20%) | 1 (1=0-20%) | 1 (1=0-20%) | 1 (1=0-20%) | 1 (1=0-20%) | 1 (1=0-20%) | 1 (1=0-20%)
